In paper PMC5067331, “Large Gliadin Peptides Detected in the Pancreas of NOD and Healthy Mice following Oral Administration” (Journal of Diabetes Research, 2016):
Entries after “also recorded” stand apart in the source; their conditions may differ. Like-named read-outs stand apart in the source and are kept apart here. Ends that are not written are not given here.

Assays:
[1] = MALDI-TOF MS of 33-mer fragments in plasma and pancreas after oral administration; conditions: for Sample in which the 33-mer fragment was found: mice 6–20 weeks, 500–900 μg 33-mer p.o., plasma and pancreas 45–60 min after administration, sequence assigned by mass match
Protocol: Plasma was fractionated in Amicon Ultra 10 kDa centrifugal filter units (Merck Millipore), Vivaspin 500, 5 kDa filter units (Sartorius), PD10 columns, Amicon Ultra 0.5 mL 10 kDa centrifugal filters, or SEP-PAK C18 Plus short cartridges (Waters), or they were ethanol-precipitated or acid-ethanol extracted. Slices from nonfixed gels were extracted overnight at 37°C in 100 μL of 50 mM NH4CO3 with or without 12.5 ng/μL Endoproteinase Glu-C Sequencing Grade (Roche Diagnostics). The gel slices were further extracted on a shaker for 15 min in 20 μL extraction buffer (1 : 2 (vol/vol) 50 mM NH4HCO3/acetonitrile). The extracts were combined.
Samples were dried in a vacuum concentrator (Eppendorf 5301) and reconstituted in 20 μL 5% acetic acid before desalting using POROS C18 matrix and elution onto a stainless steel 96-well MALDI target plate with 1 μL α-cyano-4-hydroxycinnamic acid (HCCA matrix) ready-made from Agilent (6 mg/mL in 30% acetonitrile, 30% methanol, and 0.1% TFA) for dried droplet crystallization. Analysis was done on Bruker Ultraflex with Daltonics flexAnalysis software, externally calibrated using a standard peptide mixture (Bruker, range: 1,000–3,200 Da). Spectra were recorded in positive linear mode and summed from 100 laser shots.
The MS mass of 84 fragments >800 Da was calculated. They were randomly generated from the 33-mer sequence, allowing for deamidation of up to two glutamine residues (only one deamidation for Mr <1500 Da) and for sodium and potassium ion adduct formation. Measured masses were matched to the predicted masses, using a difference of <0.5 Da as threshold. Masses from negative control samples were matched using a threshold of 1.0 and removed.

[2] = MALDI-TOF MS of fragments formed in vitro during incubation of 33-mer in mouse plasma; format: in vitro ADME; conditions: 33-mer in mouse plasma at 37°C, 5 kDa MWCO filtrate or SDS-PAGE gel slice, sequence assigned by mass match
From the text: The extracts were combined.

[3] = system: digestive proteases; conditions: cited from earlier work
[4] = mouse, in vivo, po
Protocol: (§2) For initial evaluation of accumulation and elimination in blood, NOD mice (6–8 weeks) received 230–900 μCi ^3H-33-mer or ^3H-19-mer. […] Organs were incubated with SOLVABLE (Perkin-Elmer) at 55°C until dissolved and then with 30% hydrogen peroxide to decolorize the solution. Ultima Gold (Perkin Elmer) was added, and samples were counted 1 h later in a Packard 1600TR scintillation counter.
(§3) Specific activities (dpm/mg tissue) were calculated by dividing the counts by the respective weight of the sample that was measured. The tissue distribution was examined using the tissue/blood ratios. To compare responses in blood across different doses (230–900 μCi), data were normalized to a dosage of 100 μCi.
(§4) Before oral gavage, mice were starved for 4 h and were not fed until 20 min after.
(§5) One-way ANOVA with Tukey posttest was carried out using GraphPad Prism version 5.00 for Windows (GraphPad Software, San Diego, California, USA) to analyze the distribution of the label at each time point. The stomach and intestine were excluded from the analysis due to their large variation.

[5] = Biodistribution of 3H label after oral administration (scintillation counting, tissue/blood ratio); conditions: NOD mice, shortly after administration (Figure 1(a)), 0.01 < p < 0.05, N = 2–4 mice
Protocol: as §2, §3, §4, §5

[6] = SDS-PAGE and fluorography of blood after i.v. or p.o. administration; conditions: mice, data not shown
[7] = system: trypsin; assay: Trypsin digestion of plasma/serum followed by SDS-PAGE and fluorography; format: in vitro ADME; conditions: serum; dithiothreitol/SDS at 53°C pH 7.5 45 min, then trypsin at 37°C
From the text: (§1) Supplementary file 2424306.f1.docx: Fig Supp 1. […] Abbreviations are as in Fig 1.Fig Supp 2. […] CT: control 33-mer/19-mer. […] CT is control 33-mer. […] CT is control 33-mer.

[8] = LC-MS detection of 33-mer in plasma; format: in vivo, BALB/c mice; conditions: BALB/c, methanol-TFA precipitation
Protocol: BALB/c mice, 4–16 weeks of age, were given 650–900 μg of 33-mer, either i.v. or p.o., and heparin-plasma was prepared 15–60 min later at 0°C. Protein inhibitors were added to the tissues that were homogenized, mixed with internal standard (GENESEQP:AZF58701), and precipitated with 50% methanol, 1% TFA, and centrifugation. The samples were analyzed using an Orbitrap XL (Thermo Scientific) equipped with a Nano LC (Easy nLC II, Thermo Scientific). The chromatographic system was a 10 cm, ID 75 μm, 3 μm C18-A2 column (Thermo Scientific) with a flow of 300 nL/min with 0.1% formic acid as mobile phase A and 0.1% formic acid in acetonitrile as B. The MS scan was performed using a resolution of 30000 and a scan range of 300–2000 m/z.

[9] = system: albumin and IgG; assay: Depletion of albumin and IgG from plasma, radioactivity in gel slices; format: in vivo, mouse
From the text: as §1

[10] = mouse, in vivo
Protocol: (§6) Standard tissue sections were dipped in a 1 : 1 dilution in water of melted Kodak NTB Emulsion with 10% Amplify Fluorographic Reagent (GE Healthcare), air-dried, stored in the dark at 4°C with desiccant for 1–3 weeks, developed in Kodak D19 developer, fixed in Ilford Rapid Fixer, HE stained, and examined in an Olympus Bx51 microscope (UPlanSApo 20x, 0.40) equipped with a Colorview 1 camera and Analysis getIT software (Olympus).

[11] = mouse, in vivo; remark: listed apart in the source
Protocol: Heparin-plasma was prepared from tail blood at 0°C and analysed by SDS-PAGE without further processing, after depletion of albumin and IgG using a commercial kit (Protea Biosciences) or after digestion with trypsin (incubation with 125 mM dithiothreitol, 0.05% SDS at 53°C, pH 7.5 for 45 min, followed by digestion with trypsin (Fluka) at 37°C). The gel was fixed in 15% formalin/25% ethanol and Coomassie-stained. For fluorography, the fixed gels were soaked in 7% glycerol and Amplify Fluorographic Reagent (GE Healthcare), each for 30 min, dried, and exposed on Amersham Hyperfilm MP at −80°C. Subsequently, the dried gels were rehydrated in 7% acetic acid for 2–4 h and Coomassie-stained.
For scintillation counting, gel slices were excised from the nonfixed gel, covered with 600 μL of 30% hydrogen peroxide, and heated at 50°C overnight before measurement.
For kinetics studies, using SDS-PAGE and fluorography, 230 μCi ^3H-33-mer or 770 μCi of ^3H-19-mer was used for i.v. administration and 620–1200 μCi ^3H-33-mer was used for oral administration to NOD mice aged 6–8 weeks.
Blood and organs were sampled after 1, 24 and 72 h. […] Kinetics of 3H-33-mer and 3H-19-mer in mouse blood following i.v. and p.o. administration. 3H-33-mer (A) or 3H-19-mer (B) was given i.v. to NOD mice (6-8 weeks). Tail blood was analyzed by SDS-PAGE and fluorography at the indicated time points (min). CT: control 33-mer/19-mer. In (A, right), 660 µg of unlabeled 33-mer was injected prior to the labeled peptide. (C) 3H-33-mer was administered p.o. to NOD mice (6-8 weeks). Blood was analyzed after 0.5, 1 and 20 h. All lanes were loaded with the same amount of radioactivity. CT is control 33-mer. (D) Fluorogram of in vitro incubation of blood plasma from a C57BL/6 mouse with 33-mer (28.6 ng/µl or 222.000 dpm/µl) for 0-4 h. CT is control 33-mer. (E) Plasma from mice, that had received 3H-labelled 33-mer one hour earlier by i.v. or p.o. administration, was depleted of albumin and IgG. […] Data were normalized between lanes to contain identical amounts of radioactivity outside the albumin/IgG region. […]

[12] = Autoradiography of mouse tissues; conditions: 1 h after oral administration
Protocol: as §6

[13] = In vitro incubation of 33-mer in blood plasma, SDS-PAGE and fluorography; format: in vitro ADME, C57BL/6 mouse; conditions: C57BL/6 plasma with 33-mer 28.6 ng/µl, 0-4 h
From the text: as §1

| Molecule | Sample in which the 33-mer fragment was found [1] | Sample (filtrate or gel slice range) in which the fragment was found [2] | also measured |
| --- | --- | --- | --- |
| LQLQPFPQPELPYPQPE | Plasma, NOD | 4–6 kDa | – |
| QPFPQPELPYPQPELPYPQPELPYPQPQ | Plasma, NOD, C57BL/6 | – | – |
| QPFPQPELPYPQPELPYPQPELPYPQPQPF [33-mer fragment formed in mouse plasma in vitro, MALDI-TOF MS mass match] | – | 14–18 kDa | – |
| QPFPQPELPYPQPELPYPQPELPYPQPQP | Plasma, NOD, C57BL/6 | – | – |
| QLQPFPQPELPYPQPELPYPQPELPYPQPQP [33-mer fragment formed in mouse plasma in vitro, MALDI-TOF MS mass match] | – | 14–17 kDa | – |
| H-LGQQQPFPPQQPYPQPQPF-OHY [19-mer] | – | – | Resistance to digestive proteases [3]: resistant to digestive proteases; Absorption from the intestine [4]: readily absorbed from the intestine; Level of label in the pancreas relative to blood [4]: high level of label; Presence of label at early time points [4]: present 1/2 h after administration and still remained 3 hours after oral administration |
| LQLQPFPQPELPYPQPELPYPQPELPYPQPQ [33-mer fragment formed in mouse plasma in vitro, MALDI-TOF MS mass match] | – | 14–17 kDa | – |
| FPQPELPYPQPELPYPQPELPYPQPQPF [33-mer fragment formed in mouse plasma in vitro, MALDI-TOF MS mass match] | – | 10–12 kDa | – |
| YPQPELPYPQPQPF | Plasma, NOD, C57BL/6 | Filtrate | – |
| N[C@@H](Cc1ccc(O)cc1)C(=O)O [3H-tyrosine, tyrosine] | – | – | Level of label in the pancreas relative to blood [5]: accumulated similarly to the 33- and 19-mer; HMW band after injection [6]: appearance of the HMW band |
| ELPYPQPELPYPQPEL [33-mer fragment formed in mouse plasma in vitro, MALDI-TOF MS mass match] | – | Filtrate | – |
| ELPYPQPEL [33-mer fragment formed in mouse plasma in vitro, MALDI-TOF MS mass match] | – | Filtrate | – |
| LQLQPFPQPELPYPQPELPYPQPELPYPQP [33-mer fragment formed in mouse plasma in vitro, MALDI-TOF MS mass match] | – | 14–18 kDa | – |
| LPYPQPELPYPQPQPF | Pancreas, NOD, C57BL/6 | – | – |
| PFPQPELPYPQPELPYPQPELPYPQPQPF [33-mer fragment formed in mouse plasma in vitro, MALDI-TOF MS mass match] | – | 10–12 kDa | – |
| ELPYPQPELPYPQPELPYPQPQPF [33-mer fragment formed in mouse plasma in vitro, MALDI-TOF MS mass match] | – | 14–18 kDa | – |
| LQPFPQPELPYPQPELPYPQPELPYPQPQ | Plasma, NOD, C57BL/6 | – | – |
| ELPYPQPELPYPQPELPY [33-mer fragment formed in mouse plasma in vitro, MALDI-TOF MS mass match] | – | Filtrate | – |
| LQLQPFPQPELPYPQPELPYPQPELPYP | Plasma, NOD, C57BL/6 | – | – |
| H-LQLQPFPQPELPYPQPELPYPQPELPYPQPQPF-OHY [33-mer, proline-rich 33-mer (p56–88) alpha-gliadin peptide, 98% pure (Schafer-N)] | – | 4–6 kDa, 6–9 kDa, 14–17 kDa | Degradation by trypsin [7]: degrades albumin, but not 33-mer; Intact peptide in plasma after oral administration ([8]; 650 µg p.o., 60 min): detected intact peptide; also recorded: close to the detection limit, and the peptide was not detected in all mice; Intact peptide in plasma after intravenous administration ([8]; 850 µg i.v., 15, 30 and 60 min): detected intact peptide; Resistance to digestive proteases [3]: resistant to digestive proteases; Absorption from the intestine [4]: readily absorbed from the intestine; Level of label in the pancreas relative to blood [4]: high level of label; Presence of label at early time points [4]: present 1/2 h after administration and still remained 3 hours after oral administration; Label removed by depletion of albumin and IgG ([9]; 3H-33-mer added to blood in vitro, or cold peptide injected prior to labeled peptide): 14-15%; Label removed by depletion of albumin and IgG ([9]; blood of mice that had received 33-mer, regardless of route, plasma 1 h after administration): 35%; Difference between i.v. and p.o. administration in autoradiography [10]: No difference was seen; Longest peptide detected in blood ([1]; after oral 33-mer): 32-mer; Emergence of higher molecular weight species (HMW) in blood after injection ([11]; iv): After 1 h, higher molecular weight species (HMW) emerged; 33-mer signal in blood after oral administration ([11]; po): still present in the blood, although in low amounts; Label in zymogen granules of the pancreas [12]: high accumulation of label; Label in all other tissues examined ([12]; lung, kidney, ileum): homogenous labeling was observed; Formation of 12 kDa and HMW signals in vitro [13]: the 12 kDa signal, but not the HMW signal, also formed in vitro |

Continued, in another order:

| Sample in which the 33-mer fragment was found [1] | Molecule | Sample (filtrate or gel slice range) in which the fragment was found [2] | also measured |
| --- | --- | --- | --- |
| Plasma, C57BL/6 | FPQPELPY | – | – |
| Pancreas C57BL/6 | QPFPQPELPY | Filtrate | – |
| Plasma, NOD | YPQPQPF | Filtrate | – |
| Plasma, NOD | QLQPFPQPELP | – | – |
| Plasma, C57BL/6 | LQLQPFPQPELPYPQPELPYPQPELPYPQPQP | 4–6 kDa | Stability as originally described [3]: stable |
| Plasma, NOD pancreas, C57BL/6 | ELPYPQPELP | – | – |
| Plasma, NOD | ELPYPQPQPF | – | – |
| Pancreas, C57BL/6 | LQLQPFPQPE | – | – |
| Pancreas, C57BL/6 | QLQPFPQPEL | – | – |
| Plasma, NOD | ELPYPQPELPYPQ | – | – |
| Plasma, NOD pancreas, NOD | ELPYPQPELPYP | – | – |
| Plasma, NOD | QPFPQPELP | – | – |
